Patent publication US20110182850A1, “ORGANIC COMPOUNDS AND THEIR USES” (priority 2009, published 2011)

molecular target: T1, HCV NS3-4A serine protease (full-length NS3-4A protein, genotype 1a, strain HCV-1) (Hepatitis C virus genotype 1a, UniProt P26664); test: HCV NS3-4A protease assay; assay type: biochemical; settings: Protease IC50
T1 construct: using the full-length NS3-4A protein (genotype 1a, strain HCV-1)
Experimental: The inhibitory activity of certain compounds of Table A against HCV NS3-4A serine protease is determined in a homogenous assay using the full-length NS3-4A protein (genotype 1a, strain HCV-1) and a commercially available internally-quenched fluorogenic peptide substrate as described by Taliani, M., et al. 1996 Anal. Biochem. 240:60-67, which is incorporated by reference in its entirety.

T1 sequence (P26664 1658-1711): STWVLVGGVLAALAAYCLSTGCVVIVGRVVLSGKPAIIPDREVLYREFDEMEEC
T1 sequence (P26664 1027-1657): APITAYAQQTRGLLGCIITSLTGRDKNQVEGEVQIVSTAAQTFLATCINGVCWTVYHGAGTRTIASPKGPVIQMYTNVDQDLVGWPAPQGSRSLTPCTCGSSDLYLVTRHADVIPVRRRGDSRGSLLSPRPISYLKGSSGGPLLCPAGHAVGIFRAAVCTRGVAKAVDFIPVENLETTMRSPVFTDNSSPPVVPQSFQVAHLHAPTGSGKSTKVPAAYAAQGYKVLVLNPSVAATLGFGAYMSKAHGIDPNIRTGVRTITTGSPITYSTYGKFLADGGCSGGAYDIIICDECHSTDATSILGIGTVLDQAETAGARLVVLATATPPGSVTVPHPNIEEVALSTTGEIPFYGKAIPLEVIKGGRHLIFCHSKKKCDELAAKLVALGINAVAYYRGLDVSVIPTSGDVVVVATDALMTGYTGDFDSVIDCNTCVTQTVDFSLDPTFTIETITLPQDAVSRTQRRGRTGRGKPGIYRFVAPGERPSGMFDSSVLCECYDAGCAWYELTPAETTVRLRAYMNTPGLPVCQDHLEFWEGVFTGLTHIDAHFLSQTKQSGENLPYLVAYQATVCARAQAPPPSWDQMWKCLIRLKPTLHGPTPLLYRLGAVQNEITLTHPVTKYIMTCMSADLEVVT

Compound | IC50 [nM]
C=C[C@@H]1C[C@]1(NC(=O)[C@@H]1C[C@@]2(CN1C(=O)[C@@H](NC(=O)[C@@H](NC(=O)c1c(C)n[nH]c1C)C(C)(C)C)C(C)(C)C)C(C)(C)C21CCC1)C(=O)NS(=O)(=O)C1CC1 [Compound 136, (5R,8S)-N-{(1R,2S)-1-[(cyclopropylsulfonyl)carba-moyl]-2-vinylcyclopropyl}-7-[(2S)-2-{[(2S)-2-{[(3,5-dimethyl-1H-pyrazol-4-yl)carbonyl]amino}-3,3-dimethylbutanoyl]amino}-3,3-dimethylbutanoyl]-10,10-dimethyl-7-azadispiro[3.0.4.1]decane-8-carboxamide] | 20
C=C[C@@H]1C[C@]1(NC(=O)[C@@H]1C[C@@]2(CN1C(=O)[C@@H](NC(=O)[C@@H](NC(=O)c1c(C)nn(C)c1C)C(C)(C)C)C(C)(C)C)C(C)(C)C21CCC1)C(=O)NS(=O)(=O)C1CC1 [Compound 137, (5R,8S)-N-{(1R,2S)-1-[(cyclopropylsulfonyl)carba-moyl]-2-vinylcyclopropyl}-7-[(2S)-2-{[(2S)-3,3-dimethyl-2-{[(1,3,5-trimethyl-1H-pyrazol-4-yl)carbonyl]amino}butanoyl]amino}-3,3-dimethylbutanoyl]-10,10-dimethyl-7-azadispiro[3.0.4.1]decane-8-carboxamide] | 30
C=C[C@@H]1C[C@]1(NC(=O)[C@@H]1C[C@@]2(CN1C(=O)[C@@H](NC(=O)[C@@H](NC(=O)c1cc(C(C)(C)C)n[nH]1)C(C)(C)C)C(C)(C)C)C(C)(C)C21CCC1)C(=O)NS(=O)(=O)C1CC1 [Compound 138, (5R,8S)-7-[(2S)-2-{[(2S)-2-{[(3-tert-butyl-1H-pyrazol-5-yl)carbonyl]amino}-3,3-dimethylbutanoyl]amino}-3,3-dimethylbutanoyl]-N-{(1R,2S)-1-[(cyclopropylsulfonyl)carba-moyl]-2-vinylcyclopropyl}-10,10-dimethyl-7-azadispiro[3.0.4.1]decane-8-carboxamide] | 5.5
C=C[C@@H]1C[C@]1(NC(=O)[C@@H]1C[C@@]2(CN1C(=O)[C@@H](NC(=O)[C@@H](NC(=O)C1CN(C(C)C)C1)C(C)(C)C)C(C)(C)C)C(C)(C)C21CCC1)C(=O)NS(=O)(=O)C1CC1 [Compound 139, (5R,8S)-N-{(1R,2S)-1-[(cyclopropylsulfonyl)carba-moyl]-2-vinylcyclopropyl}-7-[(2S)-2-{[(2S)-2-{[(1-isopropylazetidin-3-yl)carbonyl]amino}-3,3-dimethylbutanoyl]amino}-3,3-dimethylbutanoyl]-10,10-dimethyl-7-azadispiro[3.0.4.1]decane-8-carboxamide] | 15
C=C[C@@H]1C[C@]1(NC(=O)[C@@H]1C[C@@]2(CN1C(=O)[C@@H](NC(=O)[C@@H](NC(=O)[C@H]1CCCN1C(C)C)C(C)(C)C)C(C)(C)C)C(C)(C)C21CCC1)C(=O)NS(=O)(=O)C1CC1 [Compound 140, (5R,8S)-N-{(1R,2S)-1-[(cyclopropylsulfonyl)carba-moyl]-2-vinylcyclopropyl}-7-[(2S)-2-{[(2S)-2-({[(2R)-1-isopropylpyrrolidin-2-yl]carbonyl}amino)-3,3-dimethylbutanoyl]amino}-3,3-dimethylbutanoyl]-10,10-dimethyl-7-azadispiro[3.0.4.1]decane-8-carboxamide] | 1.5
C=C[C@@H]1C[C@]1(NC(=O)[C@@H]1C[C@@]2(CN1C(=O)[C@@H](NC(=O)[C@@H](NC(=O)[C@@H]1CCCN1C(C)C)C(C)(C)C)C(C)(C)C)C(C)(C)C21CCC1)C(=O)NS(=O)(=O)C1CC1 [Compound 141, (5R,8S)-N-{(1R,2S)-1-[(cyclopropylsulfonyl)carba-moyl]-2-vinylcyclopropyl}-7-[(2S)-2-{[(2S)-2-({[(2S)-1-isopropylpyrrolidin-2-yl]carbonyl}amino)-3,3-dimethylbutanoyl]amino}-3,3-dimethylbutanoyl]-10,10-dimethyl-7-azadispiro[3.0.4.1]decane-8-carboxamide] | 2
C=C[C@@H]1C[C@]1(NC(=O)[C@@H]1C[C@@]2(CN1C(=O)[C@@H](NC(=O)[C@@H](NC(=O)[C@H]1CCCCN1C(C)C)C(C)(C)C)C(C)(C)C)C(C)(C)C21CCC1)C(=O)NS(=O)(=O)C1CC1 [Compound 142, (5R,8S)-N-{(1R,2S)-1-[(cyclopropylsulfonyl)carba-moyl]-2-vinylcyclopropyl}-7-[(2S)-2-{[(2S)-2-({[(2R)-1-isopropylpiperidin-2-yl]carbonyl}amino)-3,3-dimethylbutanoyl]amino}-3,3-dimethylbutanoyl]-10,10-dimethyl-7-azadispiro[3.0.4.1]decane-8-carboxamide] | 3
C=C[C@@H]1C[C@]1(NC(=O)[C@@H]1C[C@@]2(CN1C(=O)[C@@H](NC(=O)[C@@H](NC(=O)[C@@H]1COCCN1C(C)C)C(C)(C)C)C(C)(C)C)C(C)(C)C21CCC1)C(=O)NS(=O)(=O)C1CC1 [Compound 143, (5R,8S)-N-{(1R,2S)-1-[(cyclopropylsulfonyl)carba-moyl]-2-vinylcyclopropyl}-7-[(2S)-2-{[(2S)-2-({[(3S)-4-isopropylmorpholin-3-yl]carbonyl}amino)-3,3-dimethylbutanoyl]amino}-3,3-dimethylbutanoyl]-10,10-dimethyl-7-azadispiro[3.0.4.1]decane-8-carboxamide] | 4
C=CCC1(S(=O)(=O)NC(=O)[C@@]2(NC(=O)[C@@H]3C[C@@]4(CN3C(=O)[C@@H](NC(=O)[C@@H](NC(=O)[C@@H]3CCCCN3C(C)C)C3CCCCC3)C(C)(C)C)C(C)(C)C43CCC3)C[C@H]2C=C)CC1 [Compound 144, (5R,8S)-N-[(1R,2S)-1-{[(1-allylcyclopropyl)sulfonyl]carba-moyl}-2-vinylcyclopropyl]-7-[(2S)-2-{[(2S)-2-cyclohexyl-2-({[(2S)-1-isopropylpiperidin-2-yl]carbonyl}amino)acetyl]amino}-3,3-dimethylbutanoyl]-10,10-dimethyl-7-azadispiro[3.0.4.1]decane-8-carboxamide] | 1

same assay, conditions: read-out: Protease IC50

Compound | IC50 [nM]
(5R,8S)-7-[(2S)-2- ({cyclohexyl[(1H-pyrazol-4- ylcarbonyl)amino]acetyl} amino)-3,3-dimethylbutanoyl]-N- {(1R,2S)-1- [(cyclopropylsulfonyl)carba- moyl]-2-vinylcyclopropyl}- 10,10-dimethyl-7- azadispiro[3.0.4.1]decane-8- carboxamide [Compound 106] | 1
(5R,8S)-7-[(2S)-2-{[(2S)-2- cyclohexyl-2-({[(2S)-1- isopropylpiperidin-2- yl]carbonyl}amino)acetyl] amino}-3,3-dimethylbutanoyl]-N- {(1R,2S)-1- [(cyclopropylsulfonyl)carba- moyl]-2-vinylcyclopropyl}- 10,10-dimethyl-7- azadispiro[3.0.4.1]decane-8- carboxamide [Compound 21] | 0.5
(5R,8S)-7-[(2S)-2-{[{[(5- chloro-1H-indol-2- yl)carbonyl]amino}(cyclohex- yl)acetyl]amino}-3,3- dimethylbutanoyl]-N- {(1R,2S)-1- [(cyclopropylsulfonyl)carba- moyl]-2-vinylcyclopropyl}- 10,10-dimethyl-7- azadispiro[3.0.4.1]decane-8- carboxamide [Compound 129] | 15
(5R,8S)-7-{(2S)-2- [(cyclohexyl{[(1- methylcyclohexyl)carbonyl] amino}acetyl)amino]-3,3- dimethylbutanoyl}-N- {(1R,2S)-1- [(cyclopropylsulfonyl)carba- moyl]-2-vinylcyclopropyl}- 10,10-dimethyl-7- azadispiro[3.0.4.1]decane-8- carboxamide [Compound 128] | 5
(5R,8S)-N-{(1R,2S)-1- [(cyclopropylsulfonyl)carba- moyl]-2-vinylcyclopropyl}-7- [(2S)-2-({(2S)-3,3-dimethyl- 2-[(piperidin-1- ylcarbonyl)amino]butanoyl} amino)-3,3-dimethylbutanoyl]- 10,10-dimethyl-7- azadispiro[3.0.4.1]decane-8- carboxamide [Compound 57] | 25

tested on: not listed separately; test: Measurement of thermodynamic solubility; assay type: physicochemical; settings: pH 1
Experimental: Thermodynamic solubility for the compounds of the invention listed in Table C is measured by a published literature procedure, e.g., Liping Zhou, et al., J. Pharm. Sci (2007) 96(11): 3052-3071.
The DMSO stocks of test compounds previously dissolved in 25 μL of DMSO (˜10 mM) in mini-prep vial (MPV: Whatman, with PVDF filter and 0.45 μm pore size) chamber were evaporated via a GeneVac HT-4X evaporator for approximately 1 hour, at the guard temperature of 30° C. An aliquot of 250 μL buffer solution (pH 1.0 or 6.8) was added into each MPV chamber containing powders reconstituted from DMSO stock solutions. The MPV filter plungers were pushed down into the chamber until the membrane of the filter plunger slightly touched the surface of the buffer to promote equilibrium between the two compartments and to minimize the adsorption due to non-specific binding of samples during the subsequent 24-hr incubation (at 600 RPM at room temperature). Immediately after the 24-hr incubation, the plungers were further pushed down to the bottom of the chambers. More solution was pushed through the membrane and entered the plunger compartment. The filter/chamber assemblies were then put on a shaker for another 30 minutes at 600 RPM. Afterwards, filtrates were further diluted (1:10) with 50/50 acetonitrile/water solvent followed by a thorough mixing process. Both plates with diluted and undiluted filtrates were analyzed by HPLC and quantified against the four-point standard dilution curve of the same test compound (5 μM, 35 μM, 65 μM and 100 μM, respectively). In the current study, solubility reflects the average of triplicate samples tested at each pH.

Compound | solubility in water
(5R,8S)-7-[(2S)-2-{[(2S)-2-cyclohexyl-2-({[(2S)-1-isopropylpiperidin-2-yl]carbonyl}amino)acetyl]amino}-3,3-dimethylbutanoyl]-N-{(1R,2S)-1-[(cyclopentylsulfonyl)carbamoyl]-2-vinylcyclopropyl}-10,10-dimethyl-7-azadispiro[3.0.4.1]decane-8-carboxamide [Compound 80] | at least 100 micromolar

same assay, conditions: pH 6.8

Compound | solubility in water
(5R,8S)-7-[(2S)-2-{[(2S)-2-cyclohexyl-2-({[(2S)-1-isopropylpiperidin-2-yl]carbonyl}amino)acetyl]amino}-3,3-dimethylbutanoyl]-N-{(1R,2S)-1-[(cyclopentylsulfonyl)carbamoyl]-2-vinylcyclopropyl}-10,10-dimethyl-7-azadispiro[3.0.4.1]decane-8-carboxamide [Compound 80] | at least 30 micromolar
